According to patent US20240360133A1, “FUSED TRICYCLIC COMPOUND, PREPARATION METHOD THEREFOR AND APPLICATION THEREOF IN MEDICINE” (Jiangsu Hengrui Pharmaceuticals Co., Ltd., priority 2020, published 2024):

What follows are compounds tested against T1, human TLR9 (Homo sapiens, UniProt Q9NR96) (assay: Inhibitory effect on human TLR9 activation pathway (HEK-Blue hTLR9 SEAP reporter)). Conditions: HEK-Blue hTLR9 cells, 1 μM CpG ODN2006, 20 h, SEAP OD620.
T1 construct: host or cells: HEK-Blue hTLR9 (HEK293)
T1 sequence (Q9NR96 26-1032): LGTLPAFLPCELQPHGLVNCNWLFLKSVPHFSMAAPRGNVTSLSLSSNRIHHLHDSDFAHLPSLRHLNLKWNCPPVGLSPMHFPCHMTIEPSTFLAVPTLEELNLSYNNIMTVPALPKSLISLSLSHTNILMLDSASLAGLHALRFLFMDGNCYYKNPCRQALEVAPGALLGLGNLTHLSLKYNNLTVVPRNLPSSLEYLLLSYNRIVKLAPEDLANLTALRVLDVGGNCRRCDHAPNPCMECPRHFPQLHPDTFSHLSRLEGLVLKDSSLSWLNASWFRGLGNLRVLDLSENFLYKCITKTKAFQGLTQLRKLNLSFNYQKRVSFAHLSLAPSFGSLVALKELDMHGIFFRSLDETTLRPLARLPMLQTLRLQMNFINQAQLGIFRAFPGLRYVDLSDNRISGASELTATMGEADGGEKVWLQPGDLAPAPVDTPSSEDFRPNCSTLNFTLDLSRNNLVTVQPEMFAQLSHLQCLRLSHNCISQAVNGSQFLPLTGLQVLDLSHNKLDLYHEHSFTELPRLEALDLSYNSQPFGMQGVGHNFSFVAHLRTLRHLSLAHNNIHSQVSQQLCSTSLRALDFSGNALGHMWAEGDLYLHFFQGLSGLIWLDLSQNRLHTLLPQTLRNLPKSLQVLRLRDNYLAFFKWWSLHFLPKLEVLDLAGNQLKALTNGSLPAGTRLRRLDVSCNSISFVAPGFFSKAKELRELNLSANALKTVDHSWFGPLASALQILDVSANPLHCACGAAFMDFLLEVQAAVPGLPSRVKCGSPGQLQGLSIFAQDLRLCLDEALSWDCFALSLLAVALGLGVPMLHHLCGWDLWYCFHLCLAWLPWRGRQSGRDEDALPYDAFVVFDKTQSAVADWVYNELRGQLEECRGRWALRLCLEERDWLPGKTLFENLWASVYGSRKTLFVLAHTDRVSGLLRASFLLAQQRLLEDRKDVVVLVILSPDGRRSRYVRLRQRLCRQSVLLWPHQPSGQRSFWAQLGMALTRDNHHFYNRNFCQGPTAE
Format: cell-based
Method: • 1. HEK-Blue™ hTLR9 cell (Invivogen) • 2. CpG ODN2006 (Invivogen) • 3. Alkaline phosphatase detection medium (Quanti-Blue Detection. Invivogen) • 4. Blasticidin (Invivogen) • 5. Zeocin (Invivogen) • 6. Normocin (Invivogen) • 7. DMEM/HIGH Glucose (GE Healthcare) • 8. Fetal bovine serum (FBS, Gibco) • 9. Phosphate-buffered saline (Shanghai BasalMedia Technologies Co., Ltd.) • 10. Sterile purified water (made in-house by Shanghai Hengrui) • 11. 15 mL centrifuge tube (Corning) • 12. 96-well formulating plate (Corning) • 13. 96-well fat-bottom cell culture plate (Corning) • 14. Constant-temperature cell incubator (Thermo scientific) • 15. Constant-temperature incubator (Shanghai Yiheng Scientific Instruments Co., Ltd.) • 16. PHERAstar FS microplate reader (BMG Labtech)
HEK-Blue™ hTLR9 cells were purchased from Invivogen. These cells are HEK293 cells transfected with the human Toll-like receptor 9 (TLR9) gene and the secreted alkaline phosphatase reporter gene (SEAP). The alkaline phosphatase reporter gene (SEAP) is under the regulation of the IFN-β minimal promoter comprising 5 NF-kB and AP-1 binding sites. Upon activation of TLR9 with an agonist, SEAP secretion is induced via downstream NF-kB and AP-1. Ater addition of an antagonist compound, the pathway described above is inhibited, and SEAP secretion is reduced. The activity of the compounds for the TLR9 pathway was evaluated by measuring OD620 through the SEAP substrate.
20 mM test compounds dissolved in 100% DMSO were serially diluted with 100% DMSO to 2000, 400, 80, 16, 3.2, 0.64, 0.128, 0.0256 IM, with blank wells containing 100% DMSO. […] The cells were cultured at 37° C. for 1-2 min, dispersed by pipetting, transferred to a 15 mL centrifuge tube, and counted, and the cell density was adjusted to 4.8×10^5/mL with the DMEM/HIGH glucose medium containing 10% inactivated FBS. […] Then the OD620 absorbance readings were taken on a microplate reader. The inhibition rate was calculated using the following formula: […]
An IC50 of 74 nM was found for `Cc1cc(-c2[nH]c3cc4c(nc3c2C(C)C)CN(CCc2ccc(N3CCNCC3)nc2)CC4)cc(C)n1` [Example 4, 2-(2,6-Dimethylpyridin-4-yl)-3-isopropyl-6-(2-(6-(piperazin-4-yl)pyridin-3-yl)ethyl)-5,6,7,8-tetrahydro-1H-pyrrolo[3,2-b][1,7]naphthyridine] in this work.
An IC50 of 87 nM was found for `Cc1cc(-c2[nH]c3cc4c(nc3c2C(C)C)CN(Cc2ccc(N3CCNCC3)cn2)CC4)cc(C)n1` [Example 5, 2-(2,6-Dimethylpyridin-4-yl)-3-isopropyl-6-((5-(piperazin-1-yl)pyridin-2-yl)methyl)-5,6,7,8-tetrahydro-1H-pyrrolo[3,2-b][1,7]naphthyridine] in this work.
An IC50 of 90 nM was found for `Cc1cc(-c2[nH]c3cc4c(nc3c2C(C)C)CN(CC23CCC(N)(CC2)CC3)CC4)cc(C)n1` [Example 7, 4-((2-(2,6-Dimethylpyridin-4-yl)-3-isopropyl-1,5,7,8-tetrahydro-6H-pyrrolo[3,2-b][1,7]naphthyridin-6-yl)methyl)bicyclo[2.2.2]octyl-1-amine] in this work.
